Conditions: Liquid, Vibrating tube method

CCOS(=O)(=O)[O-].CCn1cc[n+](C)c1 [1-ethyl-3-methylimidazolium ethyl sulfate]
Conditions	mass density [kg/m3]
342.15 K, 101.33 kPa	1208.29
343.15 K, 100 kPa	1207.4
343.15 K, 101.33 kPa	1207.63
343.15 K, 250 kPa	1207.5
343.15 K, 500 kPa	1207.6
343.15 K, 1010 kPa	1207.8
343.15 K, 1990 kPa	1208.3
343.15 K, 4990 kPa	1209.6
343.15 K, 10010 kPa	1211.9
343.15 K, 14990 kPa	1214.1
343.15 K, 20010 kPa	1216.3
343.15 K, 24990 kPa	1218.3
343.15 K, 30000 kPa	1220.4
343.15 K, 35010 kPa	1222.4
343.15 K, 40000 kPa	1224.5
343.15 K, 45000 kPa	1226.4
343.15 K, 50000 kPa	1228.4
343.15 K, 54990 kPa	1230.3
343.15 K, 60000 kPa	1232.2
344.15 K, 101.33 kPa	1206.97
345.15 K, 101.33 kPa	1206.32
346.15 K, 101.33 kPa	1205.66
347.15 K, 101.33 kPa	1205.01
348.15 K, 101.33 kPa	1204.36
349.15 K, 101.33 kPa	1203.7
350.15 K, 101.33 kPa	1203.05
351.15 K, 101.33 kPa	1202.4
352.15 K, 101.33 kPa	1201.75
353.15 K, 100 kPa	1200.9
353.15 K, 101.33 kPa	1201.09
353.15 K, 250 kPa	1200.9
353.15 K, 500 kPa	1201
353.15 K, 1010 kPa	1201.3
353.15 K, 2000 kPa	1201.8
353.15 K, 4990 kPa	1203.1
353.15 K, 10010 kPa	1205.5
353.15 K, 15000 kPa	1207.6
353.15 K, 20000 kPa	1209.9
353.15 K, 24990 kPa	1212
353.15 K, 30010 kPa	1214.2
353.15 K, 34990 kPa	1216.2
353.15 K, 40000 kPa	1218.3
353.15 K, 45000 kPa	1220.2
353.15 K, 50000 kPa	1222.3
353.15 K, 54990 kPa	1224.2
353.15 K, 60000 kPa	1226.1
354.15 K, 101.33 kPa	1200.44
355.15 K, 101.33 kPa	1199.79
356.15 K, 101.33 kPa	1199.14
357.15 K, 101.33 kPa	1198.49
358.15 K, 101.33 kPa	1197.84
359.15 K, 101.33 kPa	1197.2
360.15 K, 101.33 kPa	1196.55
361.15 K, 101.33 kPa	1195.9
362.15 K, 101.33 kPa	1195.26
363.15 K, 100 kPa	1194.3
363.15 K, 101.33 kPa	1194.61
363.15 K, 250 kPa	1194.4
363.15 K, 500 kPa	1194.5
363.15 K, 1000 kPa	1194.7
363.15 K, 2000 kPa	1195.2
363.15 K, 4990 kPa	1196.6
363.15 K, 10010 kPa	1199
363.15 K, 14990 kPa	1201.3
363.15 K, 19990 kPa	1203.6
363.15 K, 25000 kPa	1205.7
363.15 K, 30000 kPa	1207.9
363.15 K, 34990 kPa	1210
363.15 K, 40000 kPa	1212.2
363.15 K, 45000 kPa	1214.2
363.15 K, 50000 kPa	1216.2
363.15 K, 55000 kPa	1218.2
363.15 K, 60000 kPa	1220.2
373.15 K, 100 kPa	1187.8
373.15 K, 250 kPa	1187.9
373.15 K, 500 kPa	1188
373.15 K, 1010 kPa	1188.2
373.15 K, 2000 kPa	1188.7
373.15 K, 4990 kPa	1190.2
373.15 K, 10010 kPa	1192.6
373.15 K, 14990 kPa	1194.9
373.15 K, 20010 kPa	1197.3
373.15 K, 25000 kPa	1199.5
373.15 K, 30010 kPa	1201.7
373.15 K, 34990 kPa	1203.9
373.15 K, 40000 kPa	1206.1
373.15 K, 45000 kPa	1208.1
373.15 K, 50000 kPa	1210.2
373.15 K, 54990 kPa	1212.3
373.15 K, 60000 kPa	1214.3
393.15 K, 100 kPa	1174.8
393.15 K, 250 kPa	1174.9
393.15 K, 500 kPa	1175
393.15 K, 1010 kPa	1175.3
393.15 K, 2000 kPa	1175.8
393.15 K, 4990 kPa	1177.3
393.15 K, 10000 kPa	1179.9
393.15 K, 15000 kPa	1182.3
393.15 K, 20010 kPa	1184.8
393.15 K, 24990 kPa	1187.1
393.15 K, 30010 kPa	1189.5
393.15 K, 34990 kPa	1191.7
393.15 K, 40000 kPa	1194
393.15 K, 45010 kPa	1196.2
393.15 K, 50000 kPa	1198.4
393.15 K, 55000 kPa	1200.5
393.15 K, 60000 kPa	1202.6
413.15 K, 100 kPa	1161.7
413.15 K, 250 kPa	1161.8
413.15 K, 500 kPa	1162
413.15 K, 1010 kPa	1162.2
413.15 K, 2000 kPa	1162.8
413.15 K, 4990 kPa	1164.4
413.15 K, 10000 kPa	1167.2
413.15 K, 14990 kPa	1169.7
413.15 K, 20010 kPa	1172.4
413.15 K, 24990 kPa	1174.8
413.15 K, 30000 kPa	1177.4
413.15 K, 34990 kPa	1179.7
413.15 K, 40000 kPa	1182.1
413.15 K, 45000 kPa	1184.4
413.15 K, 50000 kPa	1186.7
413.15 K, 54990 kPa	1188.9
413.15 K, 60000 kPa	1191.1
433.15 K, 100 kPa	1148.6
433.15 K, 250 kPa	1148.7
433.15 K, 500 kPa	1148.8
433.15 K, 1010 kPa	1149.1
433.15 K, 2000 kPa	1149.7
433.15 K, 4990 kPa	1151.4
433.15 K, 10010 kPa	1154.4
433.15 K, 14990 kPa	1157.1
433.15 K, 20010 kPa	1159.9
433.15 K, 24990 kPa	1162.5
433.15 K, 30010 kPa	1165.2
433.15 K, 34990 kPa	1167.6
433.15 K, 40000 kPa	1170.2
433.15 K, 45010 kPa	1172.6
433.15 K, 50000 kPa	1175.1
433.15 K, 54990 kPa	1177.4
433.15 K, 60000 kPa	1179.7

Reference: the NIST ThermoML archive (doi:10.1016/j.fluid.2010.03.010)
